Assay type in all cases: in vitro ADME
The target of series [1] is T1, CYP1A2 (Homo sapiens, UniProt P05177).
T1 sequence (P05177 1-516): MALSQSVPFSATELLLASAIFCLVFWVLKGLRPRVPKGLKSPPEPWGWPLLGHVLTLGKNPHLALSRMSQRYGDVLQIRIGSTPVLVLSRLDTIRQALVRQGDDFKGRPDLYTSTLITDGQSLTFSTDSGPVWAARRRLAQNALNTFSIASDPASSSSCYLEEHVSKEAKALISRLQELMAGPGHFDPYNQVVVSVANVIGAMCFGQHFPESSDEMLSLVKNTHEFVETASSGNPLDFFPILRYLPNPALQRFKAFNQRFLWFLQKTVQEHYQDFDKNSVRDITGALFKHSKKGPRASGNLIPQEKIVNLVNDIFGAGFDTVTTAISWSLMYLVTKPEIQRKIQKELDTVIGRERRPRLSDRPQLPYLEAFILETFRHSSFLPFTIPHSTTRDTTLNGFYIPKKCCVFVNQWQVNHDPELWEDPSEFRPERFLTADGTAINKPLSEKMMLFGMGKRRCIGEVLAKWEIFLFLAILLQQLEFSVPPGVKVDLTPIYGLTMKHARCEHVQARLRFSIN

Series [2] has as its target T2, OAT3 (Homo sapiens, UniProt Q8TCC7).
T2 sequence (Q8TCC7 1-542): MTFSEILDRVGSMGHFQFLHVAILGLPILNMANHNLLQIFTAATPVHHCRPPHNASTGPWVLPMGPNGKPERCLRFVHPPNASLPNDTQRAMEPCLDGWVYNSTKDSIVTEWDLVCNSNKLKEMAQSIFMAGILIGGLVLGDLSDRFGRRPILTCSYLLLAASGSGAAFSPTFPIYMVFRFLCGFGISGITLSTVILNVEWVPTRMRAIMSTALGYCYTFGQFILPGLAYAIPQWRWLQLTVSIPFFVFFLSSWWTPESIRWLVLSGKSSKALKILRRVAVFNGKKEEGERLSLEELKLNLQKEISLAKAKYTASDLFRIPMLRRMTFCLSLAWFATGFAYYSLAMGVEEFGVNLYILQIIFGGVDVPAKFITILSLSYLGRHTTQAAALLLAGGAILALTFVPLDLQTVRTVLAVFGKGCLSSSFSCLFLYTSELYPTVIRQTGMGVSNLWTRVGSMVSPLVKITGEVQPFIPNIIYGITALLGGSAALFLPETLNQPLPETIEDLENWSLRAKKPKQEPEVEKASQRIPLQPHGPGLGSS
Put plainly: OAT3 uptake inhibition assay. Conditions: 0.63–40 μM.

For series [3], the target named is T3, OAT1 (Homo sapiens, UniProt Q4U2R8).
T3 sequence (Q4U2R8 1-563): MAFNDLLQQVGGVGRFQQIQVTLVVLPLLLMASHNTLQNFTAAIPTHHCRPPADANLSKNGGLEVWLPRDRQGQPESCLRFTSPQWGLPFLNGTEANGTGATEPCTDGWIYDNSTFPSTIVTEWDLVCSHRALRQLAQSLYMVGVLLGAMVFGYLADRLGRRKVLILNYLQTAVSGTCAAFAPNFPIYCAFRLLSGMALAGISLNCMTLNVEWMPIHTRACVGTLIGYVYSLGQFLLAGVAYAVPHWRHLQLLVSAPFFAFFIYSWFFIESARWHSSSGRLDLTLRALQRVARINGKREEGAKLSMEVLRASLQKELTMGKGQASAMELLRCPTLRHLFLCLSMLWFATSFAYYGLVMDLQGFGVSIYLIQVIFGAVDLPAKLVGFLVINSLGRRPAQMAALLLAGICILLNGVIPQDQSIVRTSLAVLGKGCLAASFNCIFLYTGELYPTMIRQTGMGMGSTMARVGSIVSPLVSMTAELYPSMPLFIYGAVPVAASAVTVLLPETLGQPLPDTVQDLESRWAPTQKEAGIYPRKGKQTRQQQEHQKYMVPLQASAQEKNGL
Put plainly: OAT1 uptake substrate assay.

Series [4] has as its target T2, OAT3. Put plainly: OAT3 uptake substrate assay.
Series [5] deals with T4, OATP1B1 (Homo sapiens, UniProt Q9Y6L6).
T4 sequence (Q9Y6L6 1-691): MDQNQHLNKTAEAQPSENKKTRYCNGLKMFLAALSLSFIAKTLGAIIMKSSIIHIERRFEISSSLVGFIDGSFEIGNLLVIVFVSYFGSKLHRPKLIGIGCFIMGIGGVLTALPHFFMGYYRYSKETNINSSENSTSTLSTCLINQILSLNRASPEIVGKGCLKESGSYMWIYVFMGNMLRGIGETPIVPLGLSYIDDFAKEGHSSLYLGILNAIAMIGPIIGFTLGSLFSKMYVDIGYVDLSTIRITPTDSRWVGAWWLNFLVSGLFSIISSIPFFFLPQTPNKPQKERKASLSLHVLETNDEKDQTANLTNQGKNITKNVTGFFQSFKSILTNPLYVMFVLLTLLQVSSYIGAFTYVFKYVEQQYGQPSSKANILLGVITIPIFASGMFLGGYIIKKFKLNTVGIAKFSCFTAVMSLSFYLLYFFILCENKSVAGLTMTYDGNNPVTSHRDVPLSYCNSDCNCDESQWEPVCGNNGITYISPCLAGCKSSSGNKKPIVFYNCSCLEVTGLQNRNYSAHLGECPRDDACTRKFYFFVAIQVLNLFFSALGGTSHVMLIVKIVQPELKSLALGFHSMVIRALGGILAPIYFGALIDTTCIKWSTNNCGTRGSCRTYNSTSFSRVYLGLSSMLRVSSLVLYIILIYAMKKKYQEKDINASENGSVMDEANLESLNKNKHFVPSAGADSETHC
Put plainly: OATP1B1 uptake substrate assay.

Series [6] addresses OCT1 (Homo sapiens, UniProt O15245). Put plainly: OCT1 uptake substrate assay.
The mark [7] stands for this setting: transporter-expressing vs control cells, 0.04–40 µm.

Structures are written as SMILES.

OCT1, sequence (O15245 whole entry): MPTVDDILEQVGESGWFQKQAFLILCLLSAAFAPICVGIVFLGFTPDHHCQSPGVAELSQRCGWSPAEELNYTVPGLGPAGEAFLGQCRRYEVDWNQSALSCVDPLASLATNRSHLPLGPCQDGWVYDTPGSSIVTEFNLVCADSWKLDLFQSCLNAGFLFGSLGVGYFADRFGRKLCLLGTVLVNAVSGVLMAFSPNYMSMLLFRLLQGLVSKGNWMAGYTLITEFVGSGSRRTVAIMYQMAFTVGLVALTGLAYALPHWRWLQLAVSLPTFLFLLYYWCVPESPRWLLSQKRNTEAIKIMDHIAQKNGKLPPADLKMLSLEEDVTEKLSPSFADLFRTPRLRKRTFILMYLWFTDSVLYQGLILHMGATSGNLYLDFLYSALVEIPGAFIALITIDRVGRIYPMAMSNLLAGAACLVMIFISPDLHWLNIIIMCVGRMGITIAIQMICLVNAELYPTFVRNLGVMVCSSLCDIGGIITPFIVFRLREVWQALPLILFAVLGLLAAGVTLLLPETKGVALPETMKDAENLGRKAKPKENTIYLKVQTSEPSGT

In general, IC50 refers to the point on the concentration scale where inhibition reaches its midpoint. As to `N#Cc1ccc(N2N=C3c4ccc(C(=O)N5CCC(O)CC5)nc4CC[C@@H]3[C@@H]2C2CCCC2)cc1Cl` [Ocedurenone, ocedurenone], in series [1] (ocedurenone at 200 μM), the “percent remaining activity of CYP1A2” value is 92.9%. Also, the concentration for half-maximal inhibition (IC50) in series [1] (read-out: IC50 CYP1A2, recombinant CYP) was more than 200 µM. Further, the “inhibition category CYP1A2” value in series [1] (recombinant enzyme) was “little or no inhibition”. Further, the “interaction with human OAT3 transporter (inhibition)” value in series [2] is reported as “No interaction”. In addition, the “Substrate, OAT1 UPT” value in series [3] is recorded as “not likely to be a substrate”. In series [3] (setting [7]), the “Maximum fold accumulation, OAT1 UPT” value turned out to be 1.1. Moreover, in series [4], the “Substrate, OAT3 UPT” value was “not likely to be a substrate”. Also, the “Maximum fold accumulation, OAT3 UPT” value in series [4] (setting [7]) is given as less than 2. In series [5], the “Substrate, OATP1B1 UPT” value is “not likely to be a substrate”. Also, the “Maximum fold accumulation, OATP1B1 UPT” value in series [5] (setting [7]) is recorded as 1.0. The “Substrate, OCT1 UPT” value in series [6] is “not likely to be a substrate”. Also, the “Maximum fold accumulation, OCT1 UPT” value in series [6] (setting [7]) worked out at 1.1.
